Source: patent US4022842A, “Bibenzyl compounds” (Rikagaku Kenkyusho, priority 1972, dated 1977)
In brackets after ≈: the same amount, converted by molar mass. Read-outs that look alike come from different tables or passages of the source.

Tests used:
lettuce seeds = assay: Inhibition of germination of lettuce seeds, 50% inhibition (Example 5, Table 2); type: in vivo, Lactuca sativa L.; details: 1% dimethylformamide; for IC50: Lactuca sativa, 48 h
Method: Every compound shown in Table 1 was respectively dissolved at various concentrations in distilled water containing 1% of dimethylformamide, and 3 ml each of the resulting solutions was poured into a culture dish of 6 cm diameter in which 2 filter papers were spread. About 100 seeds (non-dormant ware head seeds) of lettuce (Lactuca sativa L.) were shown in each dish, and they were allowed to stand at 23° C. in the dark for 2 days. Germination percentages were determined and plotted against the concentrations of the compound tested. From the graphs obtained the concentration to give 50% inhibition was determined. The definition of inhibition rate is given in the following formula: [formula] Usually the germination percentage of the untreated control lot was about 95%.

oats coleoptile = assay: Growth inhibition in oats coleoptile sections (Example 4, Table 1); design: species or system Avena sativa L.; details: for IC50: Avena sativa
Method: A compound illustrated in Table 1 was dissolved in dimethylformamide and the solution was diluted to desired concentrations with water containing 2% of sucrose. In control test dimethylformamide was applied in the same amount as that of treated groups. This solvent gives no phytotoxicity to plants to be tested if the content in water is 1% or less. The prepared liquors were poured into culture dishes of 3 cm diameter, the amount of the medium poured into one dish being 2 ml. Sections of 5 mm in length cut from a coleoptiles of oats (Avena sativa L.) which have been grown in the dark were floated on the test media in the culture dishes and cultured at 25° C. for 20 hours in the dark to determine the growth-inhibition degrees.
In the control group, the coleoptile elongated by about 5 mm during the experiment.

Solubility = type: physicochemical; details: for Solubility in ordinary solvents: ethanol, acetone, ethyl acetate and ether
Bulbils of yam [1] = assay: Germination (sprouting) of yam bulbils awakened from dormancy (Example 6, Table 3); type: in vivo, Dioscorea batatas Decne.; details: 300 μg/ml; 23° C., light of 1800 luxes, 2 weeks; untreated control 80
Method: Bulbils (fleshy buds for breeding formed on stems) of yam (Dioscorea batatas Decne.) were stored at a low temperature of 5° C. for 3 months and awakened from hibernation. These fleshy buds were treated with the agricultural chemical of this invention in the following manner to lead them to hibernation again.
Every active ingredient compound of this invention shown in the following Table 3 was dissolved emulsified in distilled water containing 1% of dimethylformamide and 0.05% of Tween 20. 25 ml of the resulting liquor was poured into a culture dish of 9 cm diameter in which absorbent cotton was spread, and 30 of bulbis which had been subjected to the above low temperature treatment and awakened from dormancy were sown on the dish and they were allowed to sprout at 23° C. under light of 1800 luxes for 2 weeks.

oats coleoptiles = assay: Growth inhibition of oats coleoptile pieces with indoleacetic acid (Example 9, Table 6); design: species or system Avena sativa L.; details: Avena sativa, read-out: Growth Inhibition ratio
Method: Oats (Avena sativa L.) were allowed to germinate under a weak red light at 25° C. and 3 days after germination sections of […] in length were cut from coleoptiles about 25 mm in length. 4-Hydroxy-2,6,7-trimethoxyphenanthrene or 3,3-dihydroxy-5-methoxybibenzyl was dissolved in a culture medium comprising 0.1 mg/l of indoleacetic acid, 0.05% of Tween 20 and 2% of sucrose, the balance being water. Ten of the above cut-out coleoptile pieces were flated on the resulting culture medium and cultivation was conducted at 25° C. for 18 hours to examine the growth state and the results shown in Table 6 were obtained.

Seedings of lettuce = assay: Growth inhibition of lettuce seedling stems (hypocotyls) (Example 10, Table 7); type: in vivo, Lactuca sativa L.; details: Lactuca sativa, 72 h, read-out: Growth Inhibition Ratio
Method: 4-Hydroxy-2,6,7-trimethoxyphenanthrene or 3,3'-dihydroxy-5-methoxybibenzyl was dissolved in acetone, and the resulting solution was placed in culture dishes in which 2 layers of filter paper were spread so as to give required amounts of the test compound. After the acetone was removed by evaporation, Hoagland's nutrient solution containing 0.05% of Tween 20 was poured into the culture dishes. Seedings of lettuce (Lactuca sativa L.), which had been germinated in a different place, were transplanted to the culture dishes and cultivation was carried out in a light place at 23° C. for 3 days. Then, the lengths of the stems (hypocotyls) were measured to determined the growth inhibition ratio.

seeds of a lettuce = assay: Germination ratio of lettuce seeds (Example 8, Table 5); type: in vivo, Lactuca sativa L.; details: for Germination Ratio: 23° C., 2 days, untreated control 90; for Germination after washing and transplanting: washed with water, transplanted on culture dish free of compound
Method: 4-Hydroxy-2,6,7-trimethoxyphenanthrene and 3,3'-dihydroxy-5-methoxybibenzylwere respectively dissolved in water containing 0.05% of Tween 20 and 1% of dimethylformamide, and each of the resulting solution was poured into a culture dish, 6 cm in diameter, in which 2 layers of filter paper were spread to form a germination bed. 100 seeds of a lettuce (Lactuca sativa L.) were sown on the germination bed and cultivation was conducted for 2 days at 23° C. […] [formula]

bulbils of yam [2] = assay: Sprouting of yam bulbils in dark or light (Example 7, Table 4); type: in vivo, Discorea batatas Decne.; details: 23° C., 20 days
Method: 4-Hydroxy-2,6,7-trimethoxyphenanthrene and 3,3'-dihydroxy-5-methoxybibenzylwere respectively dissolved at various concentrations in water containing 0.05% of Tween 20, and 30 ml each of the resulting solutions were poured into culture dishes of 9 cm in diameter containing 1 g of absorbent cotton.
Thirty bulbils of yam (Discorea batatas Decne.) which had been awakened from dormancy were planted in each of the so arranged culture dishes, and the germination test was carried out at 23° C. either in the dark or in the light. […]

[3] = 23° C., dark, 2 days, read-out: Inhibition of Germination of Lettuce Seeds, Concentration Giving 50% Inhibition
[4] = 5 mm sections, 25° C., 20 hours, dark, read-out: Growth Inhibition in oats coleoptile (concentration giving 50% inhibition)
[5] = 100 mg/l, dark place, untreated control 56
[6] = 100 mg/l, light place, untreated control 44
[7] = 300 mg/l, dark place, untreated control 56
[8] = 300 mg/l, light place, untreated control 44
[9] = 1000 mg/l, dark place, untreated control 56
[10] = read-out: Inhibition of Germination of Lettuce Seeds, Concentration Giving 50% Inhibition, 23° C., dark, 2 days
[11] = 20 h, read-out: Growth Inhibition in oats coleoptile (concentration giving 50% inhibition), 5 mm sections, 25° C., 20 hours, dark

COc1cc(O)cc(CCc2ccccc2)c1 [Compound 1, 3-hydroxy-5-methoxybibenzyl]
IC50 (lettuce seeds; [3]): 60 µg/mL (≈ 263 µM) | IC50 (oats coleoptile; [4]): 80 µg/mL (≈ 350 µM)

COc1cc(CCc2ccccc2O)c(O)c(OC)c1 [Compound 2, 2,2'-dihydroxy-3,5-dimethoxybibenzyl]
IC50 (lettuce seeds; [3]): 100 µg/mL (≈ 365 µM) | Solubility in ordinary solvents (Solubility): Soluble | Solubility in hexane (Solubility): insoluble | Solubility in water (Solubility): insoluble | IC50 (oats coleoptile; [4]): 100 µg/mL (≈ 365 µM)

COc1cc(CCc2ccc(O)cc2)cc(O)c1OC [Compound 3, 3,4'-dihydroxy-4,5-dimethoxybibenzyl]
Germination Ratio (Bulbils of yam [1]): 42% | IC50 (lettuce seeds; [3]): 120 µg/mL (≈ 437 µM) | IC50 (oats coleoptile; [4]): 150 µg/mL (≈ 547 µM)

CC(=O)c1cc(CCc2ccccc2)c(O)cc1O [Compound 4, 4,6-dihydroxy-3-acetyldibenzyl]
Germination Ratio (Bulbils of yam [1]): 63% | IC50 (lettuce seeds; [3]): 90 µg/mL (≈ 351 µM) | IC50 (oats coleoptile; [4]): 90 µg/mL (≈ 351 µM)

Oc1ccc(CCc2ccccc2)c(O)c1 [Compound 5, 2,4-dihydroxybibenzyl]
IC50 (lettuce seeds; [3]): 90 µg/mL (≈ 420 µM) | IC50 (oats coleoptile; [4]): 110 µg/mL (≈ 513 µM)

Oc1c(Cl)cc(Cl)cc1CCc1cc(Cl)cc(Cl)c1O [Compound 6, 3,5,3',5'-tetrachloro-2,2'-dihydroxybibenzyl]
Germination Ratio (Bulbils of yam [1]): 15% | IC50 (lettuce seeds; [3]): 10 µg/mL (≈ 28.4 µM) | IC50 (oats coleoptile; [4]): 30 µg/mL (≈ 85.2 µM)

COc1ccc(CCc2cc(O)cc(O)c2)cc1O [Compound 7, 3,3',5'-trihydroxy-4-methoxybibenzyl]
IC50 (lettuce seeds; [3]): 75 µg/mL (≈ 288 µM) | IC50 (oats coleoptile; [4]): 75 µg/mL (≈ 288 µM)

COc1cc(O)cc(CCc2cccc(O)c2)c1 [Compound 8, 3,3'-dihydroxy-5-methoxybibenzyl]
inhibition at 30 µg/mL (oats coleoptiles; 30 mg/l, 0.1 mg/l indoleacetic acid, 25° C., 18 hours): 39% | inhibition at 100 µg/mL (oats coleoptiles; 100 mg/l, 0.1 mg/l indoleacetic acid, 25° C., 18 hours): 76% | inhibition at 300 µg/mL (oats coleoptiles; 300 mg/l, 0.1 mg/l indoleacetic acid, 25° C., 18 hours): 84% | inhibition at 30 µg/mL (Seedings of lettuce; 30 mg/l, stem (hypocotyl) length, light place, 23° C., 3 days): 21% | inhibition at 100 µg/mL (Seedings of lettuce; 100 mg/l, stem (hypocotyl) length, light place, 23° C., 3 days): 48% | inhibition at 300 µg/mL (Seedings of lettuce; 300 mg/l, stem (hypocotyl) length, light place, 23° C., 3 days): 86% | Germination Ratio (Bulbils of yam [1]): 50% | Germination Ratio (seeds of a lettuce; 30 mg/l): 52% | Germination Ratio (seeds of a lettuce; 100 mg/l): 26% | Germination Ratio (seeds of a lettuce; 300 mg/l): 0% | Blight of germination-inhibited seeds (seeds of a lettuce; in vivo): not blighted | Germination after washing and transplanting (seeds of a lettuce): complete germination | Sprouting Ratio (bulbils of yam [2]; [5]): 56% | Sprouting Ratio (bulbils of yam [2]; [6]): 23% | Sprouting Ratio (bulbils of yam [2]; [7]): 22% | Sprouting Ratio (bulbils of yam [2]; [8]): 18% | Sprouting Ratio (bulbils of yam [2]; [9]): 14% | IC50 (lettuce seeds; [3]): 80 µg/mL (≈ 327 µM) | Solubility in ordinary solvents (Solubility): Soluble | Solubility in hexane (Solubility): insoluble | Solubility in water (Solubility): difficultly soluble | IC50 (oats coleoptile; [4]): 100 µg/mL (≈ 409 µM)

COc1cc(OC)c2c(ccc3ccc(O)cc32)c1 [Compound 9, 2,4-dimethoxy-6-hydroxyphenanthrene]
IC50 (lettuce seeds; [10]): 100 µg/mL (≈ 393 µM) | IC50 (oats coleoptile; [11]): 130 µg/mL (≈ 511 µM)

COc1cc(O)c2c(ccc3cc(OC)c(OC)cc32)c1 [Compound 10, 4-hydroxy-2,6,7-trimethoxyphenanthrene]
inhibition at 30 µg/mL (oats coleoptiles; 18 h): 16% | inhibition at 100 µg/mL (oats coleoptiles; 18 h): 44% | inhibition at 300 µg/mL (oats coleoptiles; 18 h): 79% | inhibition at 30 µg/mL (Seedings of lettuce): 13% | inhibition at 100 µg/mL (Seedings of lettuce): 45% | inhibition at 300 µg/mL (Seedings of lettuce): 72% | Germination Ratio (Bulbils of yam [1]): 45% | Germination Ratio (seeds of a lettuce; 30 mg/l): 78% | Germination Ratio (seeds of a lettuce; 100 mg/l): 43% | Germination Ratio (seeds of a lettuce; 300 mg/l): 10% | Blight of germination-inhibited seeds (seeds of a lettuce; after treatment): not blighted | Germination after washing and transplanting (seeds of a lettuce): complete germination | Sprouting Ratio (bulbils of yam [2]; [5]): 46% | Sprouting Ratio (bulbils of yam [2]; [6]): 14% | Sprouting Ratio (bulbils of yam [2]; [7]): 30% | Sprouting Ratio (bulbils of yam [2]; [8]): 8% | Sprouting Ratio (bulbils of yam [2]; [9]): 23% | IC50 (lettuce seeds; [10]): 60 µg/mL (≈ 211 µM) | IC50 (oats coleoptile; [11]): 90 µg/mL (≈ 317 µM)

COc1cc2ccc3cc(O)c(OC)c(OC)c3c2cc1O [Compound 11, 2,6-dihydroxy-3,4,7-trimethoxyphenanthrene]
Germination Ratio (Bulbils of yam [1]): 50% | IC50 (lettuce seeds; [3]): 100 µg/mL (≈ 333 µM) | IC50 (oats coleoptile; [4]): 100 µg/mL (≈ 333 µM)

COc1cc2ccc3cc(O)c(O)cc3c2c(O)c1OC [Compound 12, 4,6,7-trihydroxy-2,3-dimethoxyphenanthrene]
IC50 (lettuce seeds; [10]): 140 µg/mL (≈ 489 µM) | IC50 (oats coleoptile; [11]): 120 µg/mL (≈ 419 µM)

COc1cc(OC)c2c(ccc3ccc(O)cc32)c1 [Compound 13, 2,4-dimethoxy-6-hydroxyphenanthrene]
Germination Ratio (Bulbils of yam [1]): 60% | Inhibition of Germination of Lettuce Seeds, Concentration Giving 50% Inhibition (lettuce seeds; 23° C., dark, 2 days): 80 µg/mL | Growth Inhibition in oats coleoptile (concentration giving 50% inhibition) (oats coleoptile; 5 mm sections, 25° C., 20 hours, dark): 90 µg/mL

CC(=O)c1cc2ccccc2c2cc(Cl)ccc12 [Compound 14, 6-chloro-9-acetylphenanthrene]
Germination Ratio (Bulbils of yam [1]): 70% | IC50 (lettuce seeds; [10]): 30 µg/mL (≈ 118 µM) | IC50 (oats coleoptile; [11]): 70 µg/mL (≈ 275 µM)

CC(=O)c1ccc2c(c1)CCc1cc(O)c(C(C)=O)cc1-2 [Compound 15, 7-hydroxy-2,6-diacetyl-9,10-dihydrophenanthrene]
IC50 (lettuce seeds; [3]): 80 µg/mL (≈ 285 µM) | IC50 (oats coleoptile; [4]): 130 µg/mL (≈ 464 µM)

Oc1cc(O)c2c(c1)CCc1cc(O)c(O)cc1-2 [Compound 16, 2,3,5,7-tetrahydroxy-9,10-dihydrophenanthrene]
IC50 (lettuce seeds; [3]): 160 µg/mL (≈ 655 µM) | IC50 (oats coleoptile; [4]): 150 µg/mL (≈ 614 µM)

COc1cc2c(cc1O)CCc1cc(OC)c(OC)c(O)c1-2 [Compound 17, 4,7-dihydroxy-2,3,6-trimethoxy-9,10-dihydrophenanthrene]
Germination Ratio (Bulbils of yam [1]): 40% | IC50 (lettuce seeds; [3]): 120 µg/mL (≈ 397 µM) | IC50 (oats coleoptile; [4]): 200 µg/mL (≈ 662 µM)

COc1cc(O)c2c(c1)CCc1cc(O)c(OC)cc1-2 [Compound 18, 4,7-dihydroxy-2,6-dimethoxy-9,10-dihydrophenanthrene]
IC50 (lettuce seeds; [3]): 160 µg/mL (≈ 588 µM) | IC50 (oats coleoptile; [4]): 180 µg/mL (≈ 661 µM)
